Reference: patent US20050175535A1 (CV Therapeutics, Inc., priority 2000, published 2005)
Where two headings read alike, the source gives them in different places.

Legend:
[1] = biological target: T1, human A2B adenosine receptors (Homo sapiens, UniProt P29275); experiment: cAMP accumulation in HEK-293 cells expressing A2B adenosine receptors; format: cell-based; conditions: up to 100 μM
T1 construct: expressed in transfected cells
T1 sequence (P29275 1-332): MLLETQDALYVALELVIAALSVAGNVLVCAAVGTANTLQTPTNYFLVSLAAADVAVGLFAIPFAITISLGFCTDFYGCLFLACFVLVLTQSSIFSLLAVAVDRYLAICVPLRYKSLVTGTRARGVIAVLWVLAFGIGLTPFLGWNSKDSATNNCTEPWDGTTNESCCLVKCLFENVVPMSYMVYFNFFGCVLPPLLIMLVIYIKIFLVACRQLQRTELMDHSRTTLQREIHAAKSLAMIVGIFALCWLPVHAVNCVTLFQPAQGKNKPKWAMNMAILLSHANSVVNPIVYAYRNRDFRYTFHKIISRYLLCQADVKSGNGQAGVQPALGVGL

[2] = biological target: T2, A1 adenosine receptor (Rattus norvegicus, UniProt P25099); experiment: A-V nodal conduction time (negative dromotropic effect) in isolated rat hearts
T2 construct: Effect of concentration on AV conduction time and coronary conductance in isolated rat hearts; tissue Simonsen Laboratories (Gilroy, Calif.); host or cells: isolated perfused rat heart (Sprague Dawley)
T2 sequence (P25099 1-326): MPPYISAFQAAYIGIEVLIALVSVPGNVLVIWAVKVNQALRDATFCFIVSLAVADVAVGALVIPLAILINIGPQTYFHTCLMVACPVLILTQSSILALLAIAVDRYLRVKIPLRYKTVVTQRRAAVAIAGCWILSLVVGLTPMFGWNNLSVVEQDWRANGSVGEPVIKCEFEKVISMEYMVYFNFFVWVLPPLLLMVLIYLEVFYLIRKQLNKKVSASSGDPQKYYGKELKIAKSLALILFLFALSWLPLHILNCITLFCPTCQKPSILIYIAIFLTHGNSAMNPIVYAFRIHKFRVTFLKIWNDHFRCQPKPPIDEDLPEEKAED

[3] = biological target: T3, human A1 adenosine receptors (Homo sapiens, UniProt P30542); experiment: Competitive radioligand binding, [3H]CPX, CHO-hA1AdoR membranes; conditions: for Ki: [3H]CPX; for affinity for the A1 receptor expressed by CHO-K1 cells: in words
T3 construct: expressed in transfected cells
T3 sequence (P30542 1-326): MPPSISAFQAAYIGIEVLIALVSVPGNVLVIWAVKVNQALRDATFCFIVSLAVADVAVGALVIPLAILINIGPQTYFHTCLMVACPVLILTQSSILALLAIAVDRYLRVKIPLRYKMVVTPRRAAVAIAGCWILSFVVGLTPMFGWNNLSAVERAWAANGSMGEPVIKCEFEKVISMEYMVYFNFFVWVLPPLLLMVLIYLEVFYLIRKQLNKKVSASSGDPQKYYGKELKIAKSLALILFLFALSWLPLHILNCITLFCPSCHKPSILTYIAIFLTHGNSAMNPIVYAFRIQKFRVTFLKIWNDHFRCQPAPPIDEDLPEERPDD
Procedure: The cell suspensions were homogenized and centrifuged at 48,000g for 15 minutes. The pellets were washed three times by re-suspension in ice-cold Tris-HCl buffer and centrifugation. The final pellet was re-suspended in Tris-HCl, aliquoted and frozen at −80° C. until used for receptor binding assays.

[4] = tested on: rat isolated perfused heart; experiment: Coronary conductance / coronary perfusion pressure in isolated perfused rat hearts; conditions: for EC50: Rattus norvegicus; for effect on coronary conductance: isolated rat hearts, in words
Procedure: Briefly, rats of either sex weighing 230-260 grams were anesthetized by intraperitoneal injection of a mixture of ketamine (100 mg/ml) and xylazine (20 mg/ml). The chest of each rat was opened and the heart removed, and rinsed in ice-cold modified Krebs-Henseleit (K-H) solution containing NaCl 117.9, KCl 4.5, CaCl2 2.5, MgSO4 1.18, KH2PO4 1.18, pyruvate 2.0 mmo/L. The aorta was cannulated and the heart was perfused at a flow rate of 10 ml/min with modified K-H solution. The K-H solution (pH 7.4) was gassed continuously with 95% O2 and 5% CO2 and warmed to 35±0.5° C. The heart was electrically paced at a fixed cycle length of 240 ms (250 beats/min) using a bipolar electrode placed in the left atrium. The electrical stimuli were generated by a Grass stimulator (Model S48, W. Warwick, R.I.) and delivered through a Stimuli Isolation Unit (Model SIU5, Astro-Med, Inc., NY) as square-wave pulses of 3-msec in duration and with an amplitude of at least twice the threshold intensity.
The identity of the adenosine receptor subtype (A1 or A2A) mediating the coronary vasodilation was determined.
Coronary perfusion pressure (CPP) was measured using a pressure transducer that was connected to the aortic cannula via a T-connector positioned approximately 3 cm above the heart. CPP was monitored throughout an experiment and recorded either on a chart recorder (Gould Recorder 2200S, Valley View, Ohio) or a computerized recording system (PowerLab/4S, ADInstruments Pty Ltd, Australia). Only hearts with CPP ranging from 60 to 85 mmHg (in the absence of drugs) were used in the study. CC conductance (in ml/min/mmHg) was calculated as the ratio between coronary perfusion rate (10 ml/min) and CPP.

[5] = biological target: A2A adenosine receptors (PC12 cells) (Rattus norvegicus, UniProt P30543); experiment: cAMP accumulation in PC12 cells
A2A adenosine receptors (PC12 cells), sequence (P30543 whole entry): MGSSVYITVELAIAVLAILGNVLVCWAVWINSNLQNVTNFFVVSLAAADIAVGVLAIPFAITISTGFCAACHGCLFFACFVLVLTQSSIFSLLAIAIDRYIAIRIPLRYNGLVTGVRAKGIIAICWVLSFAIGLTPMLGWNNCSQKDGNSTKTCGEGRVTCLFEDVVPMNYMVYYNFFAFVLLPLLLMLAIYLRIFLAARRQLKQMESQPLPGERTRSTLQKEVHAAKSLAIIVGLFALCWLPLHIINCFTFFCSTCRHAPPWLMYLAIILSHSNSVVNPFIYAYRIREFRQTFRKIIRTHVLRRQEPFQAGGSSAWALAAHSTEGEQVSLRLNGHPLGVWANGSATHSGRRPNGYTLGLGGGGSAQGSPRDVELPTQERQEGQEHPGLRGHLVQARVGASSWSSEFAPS
Procedure: Effects of adenosine receptor agonists on cAMP content in intact PC12 cells. […] Cyclic AMP levels were determined as described under “Methods”. Values represent mean±SEM of results of triplicate samples from three experiments. […] Values represent mean±SEM of triplicate determinants from one representative experiment.
Briefly, PC12 cells were rinsed three times with Hanks' balanced saline solution (HBSS), detached using a cell lifter, and pelleted by centrifugation at 500 g for 5 minutes. Aliquots of the cell suspension (0.1 to 0.2 mg protein) were placed in microfuge tubes with 250 μL of HBSS containing rolipram (50 μmol/L) to inhibit phosphodiesterases that degrade cAMP_and warmed to 37° C. Appropriate drugs were added to the cell suspensions, and incubations were allowed to continue for 10 minutes. Tubes were placed in a boiling water bath for 5 minutes to terminate the incubation. The samples were then cooled to room temperature, diluted by the addition of 1 mL of 10 mmol/L Tris-HCl buffer at pH 7.4, and then centrifuged for 2 minutes at 13000 g.
The samples were then incubated at 4° C. for 16 hours. At the end of the incubation, 70 μL of a 50% (wt/vol) hydroxyapatite suspension was added to each tube. The suspensions were gently agitated and then incubated for 10 minutes at 4° C. Antibody-bound radioactivity adsorbed to hydroxyapatite was collected onto glass fiber filters by vacuum filtration using a Brandel cell harvester. Radioactivity retained by the filter was counted in a gamma counter. […] The amount of cAMP present in samples was calculated based on a standard curve using known amounts of cAMP.

[6] = biological target: A2A adenosine receptors (Sus scrofa, UniProt K9IW67); experiment: Competitive radioligand binding, [3H]ZM241385, pig striatum membranes
A2A adenosine receptors (Sus scrofa, UniProt K9IW67), sequence (K9IW67 1-409): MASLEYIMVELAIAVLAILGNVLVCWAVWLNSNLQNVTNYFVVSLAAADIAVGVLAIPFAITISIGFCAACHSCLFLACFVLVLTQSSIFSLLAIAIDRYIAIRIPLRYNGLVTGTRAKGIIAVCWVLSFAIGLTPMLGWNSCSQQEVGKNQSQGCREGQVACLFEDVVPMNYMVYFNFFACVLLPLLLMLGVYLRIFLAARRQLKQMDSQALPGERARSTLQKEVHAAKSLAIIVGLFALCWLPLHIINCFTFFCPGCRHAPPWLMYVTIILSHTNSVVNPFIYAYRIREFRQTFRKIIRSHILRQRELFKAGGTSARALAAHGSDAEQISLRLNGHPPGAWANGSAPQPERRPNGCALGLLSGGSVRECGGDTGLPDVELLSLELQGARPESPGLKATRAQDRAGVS
Procedure: Membranes were also obtained from porcine striatial cells as follows. […] The homogenate was filtered through cotton gauze and centrifuged at 48,000g for 15 minutes at 4° C. […] The final pellet was frozen at −80° C. until used for receptor binding assays.

[7] = biological target: A2A adenosine receptors (Rattus norvegicus, UniProt P30543); experiment: Competitive radioligand binding, [3H]ZM241385, PC12 cell membranes
A2A adenosine receptors (Rattus norvegicus, UniProt P30543), sequence (P30543 whole entry): as the sequence (P30543 whole entry) above

[8] = read-out: pKi ± SEM, CHO-hA1AdoR (converted)
[9] = read-out: EC50, Coronary Conductance (Rat Isolated Heart)
[10] = read-out: pEC50 ± SEM, Coronary Conductance (Rat Isolated Heart) (converted)
[11] = [3H]ZM241385, Gpp(NH)p present, read-out: pKi ± SEM, Pig Strialum (A2A) (converted)
[12] = read-out: binding affinity to A2A receptors in pig striatum (Ki)

| EC50 [4, 9] [nM] | EC50 [4, 10] [nM] | SMILES | effect on cellular cAMP content [1] | effect on A-V nodal conduction time [2] | Ki ([3]; read-out: Ki, CHO-hA1AdoR) [nM] | Ki [3, 8] [nM] | affinity for the A1 receptor expressed by CHO-K1 cells [3] | effect on coronary conductance [4] | EC50 [5] [nM] | Ki [6, 11] [nM] | Ki [6, 12] [nM] | further results |
| --- | --- | --- | --- | --- | --- | --- | --- | --- | --- | --- | --- | --- |
| 68 | 64.6 | CCCCCn1cc(-c2nc(N)c3ncn(C4O[C@@H](CO)[C@H](O)[C@@H]4O)c3n2)cn1 (stereo partly drawn) [CVT-3033] | neither CVT-3033 nor CVT-3146 had any detectable effects | did not prolong A-V nodal conduction time | 5840 | 5750 | relatively low affinities | increased coronary conductance in a concentration-dependent manner | 487 | 2140 | 1420 | shift to the right of the CGS21680 concentration-response curve ([5]; CVT-3033 1 μM, PC12 cells): ~5 fold; Emax ([5]; PC-12, read-out: maximal response of cAMP accumulation, % of that induced by CGS21680): 63%; agonist behaviour in PC12 cells ([5]; cAMP accumulation): partial A2A agonists; Ki ([7]; binding affinity to A2A in PC12 cells (Ki)): 3620 nM; Ki ([7]; pKi ± SEM, PC12 cells (A2A), [3H]ZM241385): 3550 nM |
| 59.2 | 57.5 | Nc1ncnc2c1ncn2[C@@H]1O[C@H](CO)[C@@H](O)[C@H]1O [Adenosine, adenosine, reference compound] | – | – | – | – | – | concentration-dependent increases in coronary conductance | – | – | – | – |

| SMILES | EC50 [4, 9] [nM] | EC50 [4, 10] [nM] | effect on cellular cAMP content [1] | effect on A-V nodal conduction time [2] | Ki ([3]; read-out: Ki, CHO-hA1AdoR) [nM] | Ki [3, 8] [nM] | affinity for the A1 receptor expressed by CHO-K1 cells [3] | effect on coronary conductance [4] | EC50 [5] [nM] | Ki [6, 11] [nM] | Ki [6, 12] [nM] | further results |
| --- | --- | --- | --- | --- | --- | --- | --- | --- | --- | --- | --- | --- |
| CNC(=O)c1cnn(-c2nc(N)c3ncn(C4O[C@@H](CO)[C@H](O)[C@@H]4O)c3n2)c1 (stereo partly drawn) [CVT-3146] | 6.4 | 6.46 | neither CVT-3033 nor CVT-3146 had any detectable effects | did not prolong A-V nodal conduction time | > 16500 | 25700 | relatively low affinities | increased coronary conductance in a concentration-dependent manner | 291 | 1120 | 1100 | decrease in coronary perfusion pressure ([4]; 10 nM, isolated rat heart): 23 mmHg; effect of 60 nM CPX (A1 antagonist) on the increase in coronary conductance ([4]; CVT-3146 10 nM): not affected; effect of 60 nM ZM241385 (A2a antagonist) on the increase in coronary conductance ([4]; CVT-3146 10 nM): completely reversed; coronary conductance ([4]; CVT-3146 10 nM, baseline 0.16±0.02, n=6 hearts): 0.22±0.01 ml mm Hg−1 min−1; agonist behaviour with respect to coronary artery conductance ([4]; isolated rat heart): full agonist; Ki [7]: 1730 nM |
